According to the NIST ThermoML archive (doi:10.1021/acs.jced.5b00943):

Conditions: Liquid, Ebulliometric method (Recirculating still)

C=CC(C)C#N (centres undefined) [2-methyl-3-butenenitrile]
Conditions | vapor or sublimation pressure [kPa]
297.57 K | 2.701
304.35 K | 3.664
309.86 K | 4.608
315.95 K | 6.064
318.68 K | 6.731
321.34 K | 7.521
324.85 K | 8.987
327.15 K | 9.9
331.76 K | 11.75
335.25 K | 13.48
339.53 K | 15.75
343.65 K | 18.68
352.65 K | 25.35
356.05 K | 29.21
359.56 K | 33.21
364.85 K | 38.55
369.25 K | 44.68
373.25 K | 50.01
376.09 K | 55.48
379.75 K | 62.68
382.83 K | 68.94
387.65 K | 79.23
391.95 K | 90.16
394.25 K | 95.76
